Measurements reported in PubChem BioAssay AID2060902 (Molecular Pharmacology Branch, DTP, NCI, 2025).

Test system: 485368-065-R3-J5-PDC spheroids with HUVEC/MSC, viability
Test: Anticancer human tumor 485368-065-R3-J5-PDC patient-derived pancreatic carcinoma cell line growth inhibition [RAS]
Details: for IC50: curve of first compound; for viability, T/C: stronger effect = lower value
Source text: RAS pathway inhibitors in Combinations in Complex Spheroids
A high-throughput screen of multi-cell type tumor spheroids was designed to identify active combinations of RAS pathway inhibitors and targeted small molecules. Complex spheroids include a stromal component modeled by human endothelial cells (HUVEC) and fibroblasts modeled by human mesenchymal stem cells (MSCs). The concentration ranges selected for each drug and investigational agent were based upon clinically achievable concentrations if the clinical Cmax of the agent was known.
Compounds. The drugs and investigational agents: abemaciclib (NSC768073), cobimetinib (NSC768068), divarasib (GDC6063, NSC841802), docetaxel (NSC628503), GDC-1971 (RLY-1971, NSC841576), gemcitabine (NSC613327), inavolisib (NSC800729), ipatasertib (NSC767898), KB-0742 (NSC834161), MRTX-1133 (NSC836407), osimertinib (NSC779217), RMC-4630 (NSC839698), RMC-6236 (NSC851965), RMC-6291 (NSC852671), Ro-3306 (NSC812927), sapanisertib (NSC764658), SN-38 (NSC673596), staurosporine (NSC755774), SY5609 (NSC837396), and tovorafenib (DAY101, NSC766906), were obtained from the National Cancer Institute (NCI) Developmental Therapeutics Program Chemical Repository. The FDA-approved anticancer drug set is available from the NCI Developmental Therapeutics Program. […] The stock solutions were prepared in dimethyl sulfoxide (DMSO, Sigma-Aldrich, St. Louis, MO, cat. D2650) at 800-fold the tested concentration and stored at -70 degrees C prior to their use. All drugs and investigational agents were tested over a range starting from a high concentration at or near the clinical Cmax and decreasing in half-log increments. If the clinical Cmax for an agent had not been determined, the highest concentration tested was 10 microM.
Cell Culture. All cells were maintained in an incubator at 37 degrees C and 5% CO2 with 95% humidity. The PDC lines were cultured according to standard operating procedures established by the NCI PDMR. All PDCs were thawed and cultured in Matrigel-coated flasks prepared with a working solution of 1X Ham's F-12 nutrient mix, without supplementation (Invitrogen, Waltham, MA, cat. 11765054), 100 U/mL penicillin-streptomycin (Invitrogen, cat. 15140122), and 2.5% Matrigel (Corning Inc., Corning, NY, cat. 354248) for the first three passages. The 362531-283-R-J2-PDC and 782815-120-R-J1-PDC lines were cultured in 6C/Colon 1B media, which includes advanced DMEM/F-12 (Thermo Fisher Scientific, cat. 12634028), 10 mM HEPES (Thermo Fisher Scientific, cat. 15630080), 1X GlutaMAX supplement (Thermo Fisher Scientific, cat. 35050061), 0.1 mg/mL primocin (InvivoGen, San Diego, CA, cat. ant-pm-2), 10% defined fetal bovine serum, heat inactivated (HyClone Laboratories Inc., Logan, UT, cat. SH30070.03HI), 50% L-WRN conditioned media (ATCC, cat. CRL-3276), 1.25 mM N-Acetyl-L-cysteine (Sigma-Aldrich, cat. A9165), 10 mM nicotinamide (Sigma-Aldrich, cat. N0636), 1X B-27 supplement (Thermo Fisher Scientific, cat. 17504044), 1X N-2 supplement (Thermo Fisher Scientific, cat. 17502048), 50 ng/mL human EGF (Thermo Fisher Scientific, cat. PHG0311), and 10 microM Y-27632 dihydrochloride (Tocris Bioscience, cat. 1254). The K12877-001-R-J1-PDC line was cultured in 6I media, which includes all 6C/Colon 1B media plus 10 ng/mL human FGF-10 (PeproTech, cat. 100-26), 1 ng/mL human FGF-2 (PeproTech, cat. 100-18B), 1 µM prostaglandin E2 (Tocris Bioscience, cat. 2296), […] hydrocortisone (Sigma-Aldrich, cat. H4001), and […] bovine insulin (Sigma-Aldrich, cat. I6634). The K86415-001-R-J1-PDC line was cultured in 6D media, which includes all 6C/Colon 1B media components minus the L-WRN conditioned media. The 485176-168-R4-J1-PDC was cultured in PANC media, which includes all 6C/Colon 1B media plus 100 ng/mL human FGF-10 (PeproTech, cat. 100-26), 500 nM SB-431542 (Selleckchem, cat. S1067), and 10 nM gastrin (Tocris Bioscience, cat. 3006). […]

[1] = second compound 0.0316 µM, first compound 0.0316 µM
[2] = second compound 0.0316 µM, first compound 0.1 µM
[3] = second compound 0.0316 µM, first compound 0.316 µM
[4] = second compound 0.0316 µM, first compound 1 µM
[5] = second compound 0.1 µM, first compound 0.0316 µM
[6] = second compound 0.1 µM, first compound 0.1 µM
[7] = second compound 0.1 µM, first compound 0.316 µM
[8] = second compound 0.1 µM, first compound 1 µM
[9] = second compound 0.316 µM, first compound 0.0316 µM
[10] = second compound 0.316 µM, first compound 0.1 µM
[11] = second compound 0.316 µM, first compound 0.316 µM
[12] = second compound 0.316 µM, first compound 1 µM
[13] = second compound 1 µM, first compound 0.0316 µM
[14] = second compound 1 µM, first compound 0.1 µM
[15] = second compound 1 µM, first compound 0.316 µM
[16] = second compound 1 µM, first compound 1 µM
[17] = second compound 3.16 µM, first compound 0.0316 µM
[18] = second compound 3.16 µM, first compound 0.1 µM
[19] = second compound 3.16 µM, first compound 0.316 µM
[20] = second compound 3.16 µM, first compound 1 µM
[21] = second compound 10 µM, first compound 0.0316 µM
[22] = second compound 10 µM, first compound 0.1 µM
[23] = second compound 10 µM, first compound 0.316 µM
[24] = second compound 10 µM, first compound 1 µM
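Note: spheroids exposed to agents for seven days before readout.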

## CC(Nc1ccc2c(c1)OCCn1cc(N3C(=O)OCC3C(F)F)nc1-2)C(N)=O (centres undefined) + C#Cc1c(F)ccc2cc(O)cc(-c3ncc4c(N5CC6CCC(C5)N6)nc(OCC56CCCN5CC(F)C6)nc4c3F)c12
Second compound 0.0316 µM
  IC50: > 10000 nM
Second compound 0.1 µM
  IC50: > 10000 nM
Second compound 0.316 µM
  IC50: 9820 nM
Second compound 1 µM
  IC50: > 10000 nM
Second compound 3.16 µM
  IC50: 1610 nM
Second compound 10 µM
  IC50: < 31.6 nM
[1]
  viability, T/C: 95.9%
[2]
  viability, T/C: 93.4%
[3]
  viability, T/C: 85.4%
[4]
  viability, T/C: 80.1%
Second compound 0.0316 µM, first compound 3.16 µM
  viability, T/C: 74.5%
Second compound 0.0316 µM, first compound 10 µM
  viability, T/C: 51.9%
[5]
  viability, T/C: 101%
[6]
  viability, T/C: 90.3%
[7]
  viability, T/C: 82.4%
[8]
  viability, T/C: 91.2%
Second compound 0.1 µM, first compound 3.16 µM
  viability, T/C: 77.9%
Second compound 0.1 µM, first compound 10 µM
  viability, T/C: 57.2%
[9]
  viability, T/C: 92.7%
[10]
  viability, T/C: 93.5%
[11]
  viability, T/C: 91.5%
[12]
  viability, T/C: 85.7%
Second compound 0.316 µM, first compound 3.16 µM
  viability, T/C: 81.7%
Second compound 0.316 µM, first compound 10 µM
  viability, T/C: 48.8%
[13]
  viability, T/C: 83.4%
[14]
  viability, T/C: 85.8%
[15]
  viability, T/C: 90.7%
[16]
  viability, T/C: 72.6%
Second compound 1 µM, first compound 3.16 µM
  viability, T/C: 69.1%
Second compound 1 µM, first compound 10 µM
  viability, T/C: 51.5%
[17]
  viability, T/C: 73.4%
[18]
  viability, T/C: 56.2%
[19]
  viability, T/C: 54.5%
[20]
  viability, T/C: 60.5%
Second compound 3.16 µM, first compound 3.16 µM
  viability, T/C: 46.8%
Second compound 3.16 µM, first compound 10 µM
  viability, T/C: 32.8%
[21]
  viability, T/C: 33.8%
[22]
  viability, T/C: 31%
[23]
  viability, T/C: 24.6%
[24]
  viability, T/C: 25.9%
Second compound 10 µM, first compound 3.16 µM
  viability, T/C: 21%
Second compound 10 µM, first compound 10 µM
  viability, T/C: 18.6%

## O=C(c1ccc(F)c(F)c1Nc1ccc(I)cc1F)N1CC(O)([C@@H]2CCCCN2)C1 + C#Cc1c(F)ccc2cc(O)cc(-c3ncc4c(N5CC6CCC(C5)N6)nc(OCC56CCCN5CC(F)C6)nc4c3F)c12
Second compound 0.0316 µM
  IC50: 31.5 nM
Second compound 0.1 µM
  IC50: 33.7 nM
Second compound 0.316 µM
  IC50: 37.5 nM
Second compound 1 µM
  IC50: 26.3 nM
Second compound 3.16 µM
  IC50: 8.98 nM
Second compound 10 µM
  IC50: < 3.16 nM
Second compound 0.0316 µM, first compound 0.00316 µM
  viability, T/C: 90.3%
Second compound 0.0316 µM, first compound 0.01 µM
  viability, T/C: 65.9%
[1]
  viability, T/C: 49.5%
[2]
  viability, T/C: 31.9%
[3]
  viability, T/C: 28.1%
[4]
  viability, T/C: 8.9%
Second compound 0.1 µM, first compound 0.00316 µM
  viability, T/C: 80.8%
Second compound 0.1 µM, first compound 0.01 µM
  viability, T/C: 68.9%
[5]
  viability, T/C: 50%
[6]
  viability, T/C: 32.3%
[7]
  viability, T/C: 26%
[8]
  viability, T/C: 9.17%
Second compound 0.316 µM, first compound 0.00316 µM
  viability, T/C: 91.1%
Second compound 0.316 µM, first compound 0.01 µM
  viability, T/C: 73%
[9]
  viability, T/C: 46.6%
[10]
  viability, T/C: 39.4%
[11]
  viability, T/C: 25.4%
[12]
  viability, T/C: 9%
Second compound 1 µM, first compound 0.00316 µM
  viability, T/C: 87.4%
Second compound 1 µM, first compound 0.01 µM
  viability, T/C: 62%
[13]
  viability, T/C: 48.6%
[14]
  viability, T/C: 31.1%
[15]
  viability, T/C: 22.5%
[16]
  viability, T/C: 8.96%
Second compound 3.16 µM, first compound 0.00316 µM
  viability, T/C: 58.8%
Second compound 3.16 µM, first compound 0.01 µM
  viability, T/C: 50%
[17]
  viability, T/C: 38.7%
[18]
  viability, T/C: 24%
[19]
  viability, T/C: 19.9%
[20]
  viability, T/C: 5.77%
Second compound 10 µM, first compound 0.00316 µM
  viability, T/C: 45.1%
Second compound 10 µM, first compound 0.01 µM
  viability, T/C: 29.8%
[21]
  viability, T/C: 26.5%
[22]
  viability, T/C: 17.2%
[23]
  viability, T/C: 11.2%
[24]
  viability, T/C: 3.65%
